1 molecule from patent US6803186B2, “Compositions and methods for increasing amino acid absorption in mammals” (The IAMS Company, priority 2001, dated 2004) can be followed below.

The target of this experiment is T1, canine PepT1 (cPepT1) (Canis lupus familiaris, UniProt Q8WMX5).
T1 construct: endogenous in cells; host or cells: MDCK (Madin-Darby Canine Kidney) cells, whole-cell [3H]-GlySar uptake
T1 sequence (Q8WMX5 1-708): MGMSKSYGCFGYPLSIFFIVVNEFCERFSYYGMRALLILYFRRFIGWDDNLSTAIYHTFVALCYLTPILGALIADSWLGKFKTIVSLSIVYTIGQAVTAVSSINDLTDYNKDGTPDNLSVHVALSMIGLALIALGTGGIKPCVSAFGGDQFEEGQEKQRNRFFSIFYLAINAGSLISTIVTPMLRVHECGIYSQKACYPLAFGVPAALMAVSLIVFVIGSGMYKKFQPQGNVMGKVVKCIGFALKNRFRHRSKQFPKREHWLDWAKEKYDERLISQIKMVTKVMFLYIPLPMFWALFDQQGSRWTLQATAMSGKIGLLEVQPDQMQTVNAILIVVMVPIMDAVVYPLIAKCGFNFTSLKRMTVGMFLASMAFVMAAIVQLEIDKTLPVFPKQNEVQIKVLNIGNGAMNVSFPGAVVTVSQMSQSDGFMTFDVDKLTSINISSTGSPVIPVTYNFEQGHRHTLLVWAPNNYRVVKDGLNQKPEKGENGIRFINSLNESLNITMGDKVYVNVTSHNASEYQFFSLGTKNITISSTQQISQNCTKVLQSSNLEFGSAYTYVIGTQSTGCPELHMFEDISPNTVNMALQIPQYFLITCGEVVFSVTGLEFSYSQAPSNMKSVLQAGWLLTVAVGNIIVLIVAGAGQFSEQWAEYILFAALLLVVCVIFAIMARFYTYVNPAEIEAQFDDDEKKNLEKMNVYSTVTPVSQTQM
Nature of the experiment: Characterization of GlySar uptake by MDCK cells (Km, pH gradient, time course). Particulars: for GlySar uptake in pH 6.0 buffer relative to pH 7.4 buffer: 100 μM GlySar. Type of experiment: cell-based. The procedure: Potential expression of PepT1 transport activity (H^+-dependent, dipeptide inhibitable, low-affinity dipeptide transport) by confluent MDCK cells was evaluated using whole-cell transport techniques and glycylsarcosine (GlySar) as a model dipeptide substrate. Cells were seeded at 60,000 cells/cm^2 into 24-well trays that had been coated with rat tail collagen or poly-L-lysine and cultured ([…]:5% CO2 at 37° C.) for 3 d in media consisting of Dulbecco's Modified Eagle Medium/10% fetal calf serum/1% antimicrobial antibacterial medium. Absorption (pmols/mg protein) of [^3H]-glycyl-L-sarcosine (GlySar, 6 mCi/mL, Moravek Biochemicals, Brea, Calif.) was determined using the 24-well cluster tray method and representative scintillation counting. Before transport, cells were incubated at 37° C. for 30 min in 25 mM Hepes/Tris (pH 7.5), 140 mM NaCl, 5.4 mM KCl, 1.8 mM CaCl2, 0.8 mM MgSO4, and 5 mM glucose (uptake buffer) to normalize intracellular amino acid and peptide pools. Transport was initiated by the addition of 0.25 mL of uptake buffer that contained 2.88 μm GlySar. After 30 min of uptake at 37° C., transport was terminated by rapid washing of cells with 4×2 mL 4° C. uptake buffer. Cellular protein was precipitated with 10% trichloroacetic acid and the supernatant recovered and counted to determine radioactivity (^3H) content. Cellular protein was then solubilized in 0.2 N NaOH and 0.2% SDS and quantified by the Lowry procedure, using bovine serum albumin as a standard. The amount of H^+-dependent GlySar absorbed was calculated as the difference between uptake in pH 6.0 and pH 7.5 uptake buffers. The amount of competitor substrate-inhibitable GlySar uptake was calculated as the quotient of GlySar uptake in the absence and presence of 10 mM competitor substrate (dipeptide or amino acid) multiplied by 100%.
To preliminarily characterize the kinetic parameters of peptide transport by MDCK cells, the uptake of GlySar in media that contained pH 6.0 and 0.00064, 0.0025, 0.010, 0.04, 0.160, 0.640, 2.56, or 10.2 mM of GlySar was measured (FIG. 6). […] Collectively, these characteristics of GlySar uptake are consistent with functional activity of PepT1 expressed by other species, as opposed to high-affinity, H^+-dependent uptake by PepT2 (μm Km).
Using the maximal uptake-stimulating culture parameters determined in Experiment 3, the effect of an extracellular-to-intracellular pH gradient on GlySar uptake was further evaluated to determine a pH level at which maximal GlySar uptake could be achieved, but which would replicate physiologic conditions (FIG. 10). As expected, the presence of a pH gradient stimulated (P<0.001) H^+-dependent GlySar uptake, in a quadratic (P<0.01) fashion. Uptake at pH 5.5 or 6.0 was about 2.7 times greater than that achieved at pH 7.5. […] Accordingly, the use pH 6.0 buffers for the characterization of H^+-dependent GlySar uptake was incorporated into the standard experimental conditions.
To determine the appropriate time period to measure initial (linear) rates of GlySar uptake, a by-minute time-course experiment was performed. […] GlySar uptake in pH 6.0 buffer at 3.75, 7.5, 15, 30, 60 and 120 min was about 2, 2.1, 2.25, 2.65, 2.79, and 2.62 times more (P<0.001), respectively, than uptake from pH 7.4 buffer. Because uptake was proportional to time of uptake through 1 h, future experiments were conducted using a 30-min time period.
To confirm that H^+-dependent GlySar uptake was saturable, and therefore mediated, the uptake of GlySar from pH 6.0 and 7.4 uptake buffers containing 0.025, 0.1, 0.4, 1.6, 6.4, or 25.6 mM GlySar was evaluated (FIG. 12). Uptake of GlySar was greatest (P<0.001) from the pH 6.0 buffers, at all concentrations.

Square brackets hold non-standard residues; d marks the D form. Peptide text beside a SMILES is read from it. Sar = CNCC(=O)O

With `CN(CC(=O)O)C(=O)CN` [GlySar, glycylsarcosine] (H-Gly-[Sar]-OH), for the setting “2.88 μM GlySar, LHM 2 days (FIG. 10)”, the “H+-dependent GlySar uptake at pH 5.5 or 6.0 relative to pH 7.5” value is reported as “about 2.7 times”. Besides, the “GlySar uptake in pH 6.0 buffer relative to pH 7.4 buffer” value (3.75 min) is on record as “about 2 times”; the “GlySar uptake in pH 6.0 buffer relative to pH 7.4 buffer” value (7.5 min) is given as about 2.1 times; the “GlySar uptake in pH 6.0 buffer relative to pH 7.4 buffer” value (15 min) is reported as about 2.25 times; the “GlySar uptake in pH 6.0 buffer relative to pH 7.4 buffer” value (30 min) is listed as about 2.65 times; the “GlySar uptake in pH 6.0 buffer relative to pH 7.4 buffer” value (60 min) was about 2.79 times; the “GlySar uptake in pH 6.0 buffer relative to pH 7.4 buffer” value (120 min) was about 2.62 times. For the same molecule, the “GlySar uptake at extracellular pH 6.0 relative to pH 7.5 medium” value reads like this: (cells grown on poly-L-lysine) 1.7 fold; (cells plated on collagen) 2.3 fold.
